What was measured:
DT40 cells [1] = experiment: SSB repair through NAD(P)H depletion, DT40 cells; type: cell-based, chicken; settings: 1 mM MMS for up to 4 hours, DT40 cells
Protocol: SSB repair capacity was determined by a real-time colorimetric assay that measures intracellular NAD(P)H levels (Tano et al., DNA Repair, 6, 869-875 (2007)). PARP-1 activation during SSB repair leads to NAD^+ consumption, which can be indirectly monitored through NAD(P)H depletion (Nakamura et al., Nucleic Acids Res., 31, e104 (2003)). Briefly, 5×10^3 cells/well were seeded into a 96-well plate. After a 30 minute incubation period, the cells were treated with 1 mM MMS quickly followed by the addition of a dye containing XTT (Sigma) and 1-methoxy PMS (Sigma). For up to 4 hours, the NAD(P)H-dependent conversion of the XTT tetrazolium salt to a yellow colored formazan dye was measured spectrophotometrically. Decreases in intracellular NAD(P)H levels were determined through comparison of values to those of the PBS control. Established methods for detecting SSBs have not been adequately characterized for pH effects on DNA structure and chemistry and also lack a high specificity for SSBs, primarily because of artifactual SSB formation. […] The accumulation of SSBs leads to PARP-1 over-activation and the consumption of NAD+, which is indirectly monitored in living cells through the measurement of intracellular NAD(P)H depletion using tetrazolium salts, such as XTT, during chemical exposure (Tano et al., DNA Repair, 6, 869-875 (2007)). […]

DT40 cells [2] = type: cell-based; settings: chicken, 1 mM
Protocol: (§1) DT40 and Pol β null cells were seeded into 100 cm dishes and allowed to divide overnight to reach the density of 1×10^6 cells/mL. Cells were exposed to a continuous treatment of 1 mM methyl methanesulfonate (MMS; Aldrich) for up to 4 hours. Control cells received 1× phosphate buffered saline (PBS) for 0.5 hour. After incubation, cells were harvested, washed with chilled 1× PBS, pelleted, and stored at −80° C. until DNA isolation. Using this protocol, DT40 cells were also incubated in the absence of chemical to obtain a stock of untreated DNA.

Pol β null cells = experiment: Alkaline gel electrophoresis with or without OTX of DNA from exposed Pol β null cells; type: cell-based, chicken; settings: 1 mM MMS, 1-4 hours
Protocol: as §1
DNA was extracted using a PureGene® DNA extraction kit (Gentra Systems. Inc.) with modifications as described previously (Nakamura et al., J. Biol. Chem., 275, 5323-5328 (2000)).
An alkaline gel electrophoresis protocol (AGE) (Drouin et al., in: Technologies for Detection of DNA Damage and Mutations (G. P. Pfeifer, ed.). Plenum Press, New York, N.Y., pp. 37-43 (1996)) with modifications was used to assess SSBs and ALSs in DNA from exposed cells. The 0.7% agarose gel was prepared in gel buffer (50 mM NaCl, 1 mM EDTA, pH 7) and deionized water. After forming, the gel was soaked in mild alkaline running buffer (30 mM NaOH, 1 mM EDTA, pH 12.4) for at least 30 minutes. Equal amounts of DNA (3-5 μg) were incubated for 1 hour at 37° C. in the presence or absence of 30 mM OTX (Aldrich) in 50 mM HEPES buffer. […]

isolated, genomic DNA = experiment: SSB formation at N7-methylguanine adducts, isolated DNA, NaOH or piperidine denaturation, AGE; settings: DNA + 1 mM MMS + 30 mM OTX 1 hour
Protocol: To visualize the conversion of MMS induced N7-methylguanine (N7-meG) adducts into SSBs, the AGE assay described above was modified with a piperidine treatment (Mattes et. al., Biochem. Biophys. Acta 868:71-76 (1986)). Equal amounts of DNA (25 μg) were incubated for 1 hour at 37° C. in the presence of 30 mM OTX (Aldrich) and 1 mM MMS or PBS in 50 mM HEPES buffer (pH 7). Treated DNA was washed and collected using microcon YM-3 centrifugal filter devices (Amicon Bioseparations). The treated DNA was then incubated with alkaline buffer (pH≧12.8) that contained either 100 mM NaOH or 1 M piperidine for 20 minutes at 37° C. This DNA was then washed and collected by centrifugal filter devices, and the concentrations determined by UV. DNA (3-5 μg) from each sample received loading dye and was loaded onto a 0.7% agarose gel prepared as previously described. Electrophoresis, neutralization, staining, and image analysis were performed as described above.
ALSs such as N7-methylguanine (N7-meG), the predominate lesion formed by monofunctional alkylating agents, are generated during MMS exposure (Wyatt et. al., Chem. Res. Toxicol. 19: 1580-1594 (2006)). In the absence of OTX, ALSs other than AP sites may contribute to SSBs detected during AGE. […]

Structure (SMILES): COS(C)(=O)=O [MMS, methyl methanesulfonate]
- intracellular NAD(P)H levels (DT40 cells [1]): time-dependent decrease in intracellular NAD(P)H levels
- AP sites (ASB assay) compared to control (DT40 cells [2]): time-dependent, significant (p<0.01 for all time points, student t-test) increase in AP sites
- SSB accumulation (DNA migration) by OTX-AGE (Pol β null cells): clear time-dependent increase in DNA migration
- amount of SSBs after NaOH induced DNA denaturation, MMS treated vs control DNA (isolated, genomic DNA; 100 mM NaOH 20 minutes): no difference in the amount of SSBs
- DNA migration after piperidine treatment (isolated, genomic DNA; 1 M piperidine 20 minutes, vs PBS control): notable increase in DNA migration

From US20090233307A1, “METHODS FOR DETECTION OF SINGLE STRAND BREAKS IN DNA” (The University of North Carolina at Chapel Hill, priority 2008, published 2009)
